Tests used:
[1] = system: advanced hepatocellular carcinoma (HCC); assay: Clinical Trial NCT01658878: nivolumab in advanced hepatocellular carcinoma, SOR-naive and SOR-experienced cohorts 1 and 2; type: in vivo, human
Method: Cohort 1 comprised 80 SOR-naïve subjects, and Cohort 2 comprised 182 SOR-experienced subjects. Eleven subjects in Cohort 1 and 37 subjects in Cohort 2 were administered 0.1-10 mg/kg nivolumab as part of a dose-escalation analysis. Sixty-nine subject in Cohort 1 and 145 subjects in cohort 2 were administered 3 mg/kg nivolumab as part of a dose-expansion analysis. Following initial treatment, 154 subjects in Cohort 2 (9 subject from the dose-escalation study and 145 subjects from the dose-expansion study) were administered maintenance nivolumab at 3 mg/kg.
The primary endpoints of Clinical Trial NCT01658878 were safety and tolerability (dose-escalation) as well as objected response rate (ORR; dose-expansion). Secondary endpoints included ORR (dose-escalation), disease control rate, time to response, duration of response, and overall survival. Exploratory endpoints included biomarker assessments, which are discussed here. […]

[2] = system: PD-L1, PD-1, T-cell markers (CD3, CD4, CD8, FOXP3), macrophage markers (CD68, CD163); assay: IHC biomarker assessment of pretreatment HCC tumor samples vs BOR and overall survival (NCT01658878); set-up: species or system human; conditions: for Objective response rate, % (95% CI): BOR
Method: Pretreatment tumor samples (fresh or archival) were obtained from patients in the escalation and expansion phases receiving 3 mg/kg nivolumab (saved for IHC) or 0.1-10 mg/kg nivolumab (saved for RNA sequencing).
Samples were analyzed using (i) IHC to assess PD-L1, PD-1, T-cell markers (CD3, CD4, CD8, FOXP3), and macrophage markers (CD68, CD163); and (ii) RNA sequencing to assess tumor inflammatory signatures. Biomarkers were assessed for their association with clinical outcomes including BOR by blinded independent review committee (per RECIST v1.1) and overall survival. Analyses were performed using the standard Limma and Cox regression framework.

[3] = system: unresectable stage III or IV melanoma without a BRAF mutation; assay: Clinical trial NCT01721772: nivolumab vs dacarbazine in previously untreated melanoma without BRAF mutation; type: in vivo, human; conditions: 3-year follow up, previously untreated BRAF wildtype advanced melanoma
Method: The present example reports data collected from two clinical trials: NCT01721772 and NCT01844505. In NCT01721772, 418 subjects with confirmed, unresectable, previously untreated stage III or IV melanoma without a BRAF mutation were randomly assigned in a 1:1 ratio to receive by means of intravenous infusion either 3 mg of nivolumab per kilogram of body weight every 2 weeks, plus a dacarbazine-matched placebo every 3 weeks (n=210, 206 treated), or 1000 mg of dacarbazine per square meter of body-surface area every 3 weeks, plus a nivolumab-matched placebo every 2 weeks (n=208, 205 treated). Randomization was stratified according to tumor PD-L1 status (positive vs. negative or indeterminate) and metastasis stage (M0, M1a, or M1b vs. M1c, defined according to the tumor-node-metastasis system of the American Joint Committee on Cancer and the International Union against Cancer).
The primary end point was overall survival. Secondary end points included investigator-assessed progression-free survival, objective response rate, tumor PD-L1 expression, and health related quality of life. Exploratory endpoints included safety, pharmacokinetics, and biomarker analysis.

[4] = monotherapy, every two weeks; cited from earlier work
[5] = system: unresectable stage III or IV melanoma; assay: Clinical trial NCT01844505: nivolumab, nivolumab plus ipilimumab, or ipilimumab in previously untreated melanoma; type: in vivo, human; conditions: 4-year follow up, first-line, advanced melanoma
Method: In NCT01844505, 945 previously untreated patients with unresectable stage III or IV melanoma were randomly assigned in a 1:1:1 ratio to receive one of the following regimens: (i) 3 mg of nivolumab per kilogram of body weight every 2 weeks (plus ipilimumab-matched placebo) (n=316, 313 treated); (ii) 1 mg of nivolumab per kilogram every 3 weeks plus 3 mg of ipilimumab per kilogram every 3 weeks for 4 doses, followed by 3 mg of nivolumab per kilogram every 2 weeks for cycle 3 and beyond (n=314, 313 treated); or 3 mg of ipilimumab per kilogram every 3 weeks for 4 doses (plus nivolumab-matched placebo) (n=315, 311 treated) (FIG. 14). Both nivolumab and ipilimumab were administered by means of intravenous infusion.
Randomization was stratified according to tumor PD-L1 status (positive vs. negative or indeterminate), BRAF mutation status (V600 mutation-positive vs. wild-type), and American Joint Committee on Cancer metastasis stage (M0, M1a, or M1b vs. M1c). Treatment continued until disease progression (as defined by RECIST, version 1.1), development of unacceptable toxic events, or withdrawal of consent.
Progression-free survival and overall survival were coprimary endpoints. Secondary endpoints included objective response rate, tumor PD-L1 expression, and health related quality of life. Exploratory endpoints included safety, pharmacokinetics, and biomarker analysis.

[6] = tumor cell PD-L1 <1%, SOR-experienced population n = 137
[7] = tumor cell PD-L1 <1%, overall population (SOR-naïve and SOR-experienced) n = 195
[8] = tumor cell PD-L1 ≥1%, SOR-experienced population n = 137
[9] = tumor cell PD-L1 ≥1%, overall population (SOR-naïve and SOR-experienced) n = 195

With nivolumab the ORR [1] was 14.3%, the “subjects with duration of response (DOR) of at least 12 months” value [1] was 50% and the “Complete response, n (%)” value [2, 6] was 4 (3.6) n (%). For the same molecule, the “Partial response, n (%)” value [2, 6] was 10 (9) n (%), the “Progressive disease, n (%)” value [2, 6] was 42 (38.1) n (%) and the “Stable disease, n (%)” value [2, 6] was 49 (44.5) n (%). For the same molecule, the “Objective response rate, % (95% CI)” value [2, 6] was 12.7 (7.6-20.3) %, the “Complete response, n (%)” value [2, 7] was 6 (3.7) n (%) and the “Partial response, n (%)” value [2, 7] was 19 (11.9) n (%). For the same molecule, the “Progressive disease, n (%)” value [2, 7] was 59 (37.1) n (%), the “Stable disease, n (%)” value [2, 7] was 66 (41.5) n (%) and the “Objective response rate, % (95% CI)” value [2, 7] was 15.7 (10.8-22.2) %. For the same molecule, the “Complete response, n (%)” value [2, 8] was 1 (3.7) n (%), the “Partial response, n (%)” value [2, 8] was 6 (22.2) n (%) and the “Progressive disease, n (%)” value [2, 8] was 10 (37) n (%). The “Stable disease, n (%)” value [2, 8] was 8 (29.6) n (%), the “Objective response rate, % (95% CI)” value [2, 8] was 25.9 (12.9-44.9) % and the “Complete response, n (%)” value [2, 9] was 2 (5.5) n (%). The “Partial response, n (%)” value [2, 9] was 8 (22.2) n (%), the “Progressive disease, n (%)” value [2, 9] was 15 (41.6) n (%) and the “Stable disease, n (%)” value [2, 9] was 9 (25) n (%). The “Objective response rate, % (95% CI)” value [2, 9] was 27.7 (15.7-44.1) %, the “ORR, % (95% CI)” value [3] was 43% and the “median OS, months (95% CI)” value [3] was 37.5 (25.5—NR) months. The “median PFS, months (95% CI)” value [3] was 5.1 (3.5-12.2) months, the “maximum tolerated dose (MTD), not reached at highest dose” value [4] was over 10 mg/kg and the “ORRb, % (95% CI)” value [5] was 45%. For the same molecule, the “median OS, months (95% CI)” value [5] was 36.9 (28.3—NR) months and the “median PFS, months (95% CI)” value [5] was 6.9 (5.1-10.2) months.

In the case of `CN(C)/N=N/c1[nH]cnc1C(N)=O` [dacarbazine], the “ORR, % (95% CI)” value [3] is reported as 14%, the “median OS, months (95% CI)” value [3] is reported as 11.2 (9.6-13.0) months and the “median PFS, months (95% CI)” value [3] is reported as 2.2 (2.1-2.5) months.

In the case of ipilimumab, the “ORRb, % (95% CI)” value [5] is reported as 19%, the “median OS, months (95% CI)” value [5] is reported as 19.9 (16.9-24.6) months and the “median PFS, months (95% CI)” value [5] is reported as 2.9 (2.8-3.2) months.
